Laboratory results published in patent US5234936A, “Pyrimidocycloalkanes as a II antagonists” (American Home Products Corporation, priority 1991, dated 1993).

Tested on: A II-infused rat
Assay: antihypertensive action in A II-infused rat model
Format: in vivo
Description: In accordance with their ability to antagonize angiotensin II, the compounds of this invention show antihypertensive action in the following A II-infused rat model. Rats are anesthetized with Dial-Urethane (0.60 mL/kg, ip) and the trachea cannulated with PE 240. Either one femoral artery and both femoral veins or the carotid artery and the corresponding jugular vein are cannulated with PE 50. If the jugular vein is cannulated, two cannulas are placed in the one vein. The initial portion of the duodenum (just distal to the stomach) is cannulated with PE 50 via a small midline incision. Arterial pressure and heart rate are measured from the arterial cannula. Ten to 15 min are allowed following surgery for stabilization of arterial pressure. Ganglion blockade is then produced by intravenous administration of mecamylamine at 3 mg/kg (1 mL/kg of a 3 mg/mL solution). Ganglion blockade causes a fall in arterial pressure of about 50 mmHg. Mecamylamine is given every 90 min throughout the remainder of the experiment. An A II infusion is then begun into the other venous cannula at 0.25 μg/kg/min (at 9.6 μL/min). The A II infusion returns arterial pressure to or slightly above the control level. Once arterial pressure has stabilized with the A II infusion, baseline values for means arterial pressure (MAP) and heart rate are taken. […]

SMILES: FC(F)(F)c1nc2c(c(NCc3ccc(-c4ccccc4-c4nnn[nH]4)cc3)n1)CCCCC2.O.[K] [Example 5, 6,7,8,9-tetrahydro-N-[[2'-(1H-tetrazol-5-yl)[1,1'-biphenyl]-4-yl]methyl]-2-(trifluoromethyl)-5H-cycloheptapyrimidin-4-amine potassium salt hydrate]
- average lowering of the A II dependent blood pressure (3 mg/kg id (intraduodenal), one half hour postadministration, ganglion-blocked A II-infused rats): 45%

SMILES: CNC1(C)C2CCC(C2)C1(C)C (centres unmarked) [mecamylamine]
- fall in arterial pressure on ganglion blockade (mecamylamine 3 mg/kg intravenous, before A II infusion, anesthetized rats): about 50 mmHg
